Test results: patent US9132141B2 (priority 2012, dated 2015)

Tests used:
PR8 [1] = test: Influenza-induced lung pathology in PR8-infected mice (H&E histology); format: in vivo; conditions: ~7500 TCID50 PR8; 200 μg/mouse i.v. starting on day 2; day 7 post-infection
Procedure: Mice were infected i.n. with 50 μl of PR8 (˜7500 TCID50/mouse). Mice were then injected i.v. with 100 μl of eritoran (200 μg/mouse) starting on day 2 post-infection. Mice were then sacrificed on day 7 post-infection (day […] post-eritoran treatment) and lungs harvested for lung pathology (4 mice/treatment group). Murine lungs were inflated and perfused and fixed with 4% PFA. Fixed sections (8 μm) of paraffin-embedded lungs were stained with hematoxylin and eosin (H&E). Slides were randomized, read blindly, and examined for tissue damage, necrosis, apoptosis, and proinflammatory cellular infiltration. […] Pulse oximetry measurements were performed to confirm these observations.

PR8 [2] = test: Oxidized phospholipids in lungs of PR8-infected mice (MALDI-IMS); format: in vivo, mouse; conditions: PR8-infected mice with or without treatment
From the text: To assess the effect of eritoran on production of oxidized phospholipids during infection, MALDI-IMS was used to identify alterations in the lipid composition of mouse lungs after PR8, with or without eritoran treatment. […] (FIG. 10a). Results are representative of 4 replicate experiments. The structures of abundant phosphatidylcholine (PC) and predicted oxidized phosphatidylcholine (OxPC) molecules and molecular weights: 1-palmitoyl-2-linoleoyl PC (PLPC) m/z 757.6, 1-palmitoyl-2-arachadonyl PC (PAPC) m/z 782.1, and predicted structures of oxidized PC molecules and molecular weight, 1-palmitoyl-2-(9-oxo)nonanoyl PC (PONPC) m/z 649.4, (PEIPC) 1-palmitoyl-2-(5,6-epoxyisoprostance E2 oyl) PC m/z 828.1 are shown. (FIG. 10b).

[3] = test system: A/California/07/2009, H1N1; test: Direct antiviral effect: virus titration in MDCK cells
TLR4 = biological target: T1, TLR4 (Mus musculus, UniProt Q9JHF9+Q9QUK6); test: OxPAPC-induced IL-6 gene expression in peritoneal macrophages; format: cell-based; conditions: pretreatment 10 ng/mL for 1 hour, OxPAPC 20 μg/mL
T1 construct: endogenous in cells; host or cells: peritoneal macrophages from wild-type C57BL/6J mice
T1 sequence (Q9QUK6 26-835): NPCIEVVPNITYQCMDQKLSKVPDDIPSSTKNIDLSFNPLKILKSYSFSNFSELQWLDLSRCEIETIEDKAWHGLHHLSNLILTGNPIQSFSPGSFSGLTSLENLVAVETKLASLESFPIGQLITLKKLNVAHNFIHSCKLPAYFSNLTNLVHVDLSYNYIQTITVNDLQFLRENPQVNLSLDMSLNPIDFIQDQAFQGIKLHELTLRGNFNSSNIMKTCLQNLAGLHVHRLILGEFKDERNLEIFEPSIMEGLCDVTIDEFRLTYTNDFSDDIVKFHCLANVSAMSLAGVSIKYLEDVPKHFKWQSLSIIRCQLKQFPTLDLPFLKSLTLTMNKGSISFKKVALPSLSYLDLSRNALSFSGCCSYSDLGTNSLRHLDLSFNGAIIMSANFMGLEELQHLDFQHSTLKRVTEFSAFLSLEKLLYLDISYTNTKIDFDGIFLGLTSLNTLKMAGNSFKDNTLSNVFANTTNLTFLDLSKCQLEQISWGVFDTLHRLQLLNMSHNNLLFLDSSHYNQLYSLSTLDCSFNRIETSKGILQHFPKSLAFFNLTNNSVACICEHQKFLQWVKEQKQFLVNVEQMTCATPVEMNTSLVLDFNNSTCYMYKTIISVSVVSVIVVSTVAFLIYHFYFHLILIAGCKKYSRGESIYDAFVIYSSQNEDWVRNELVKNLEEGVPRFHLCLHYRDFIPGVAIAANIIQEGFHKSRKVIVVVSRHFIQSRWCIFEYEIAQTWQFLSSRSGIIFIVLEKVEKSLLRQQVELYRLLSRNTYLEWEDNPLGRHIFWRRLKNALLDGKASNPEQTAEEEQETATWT
T1 sequence (Q9JHF9 19-160): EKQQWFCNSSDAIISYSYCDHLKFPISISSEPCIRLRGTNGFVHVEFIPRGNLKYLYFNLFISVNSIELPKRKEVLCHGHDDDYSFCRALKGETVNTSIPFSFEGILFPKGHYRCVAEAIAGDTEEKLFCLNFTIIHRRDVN
Procedure: Wild-type C57BL/6J, TLR4^−/−, and TLR2^−/− peritoneal macrophages were pretreated with eritoran (10 ng/mL) for 1 hour and then treated with medium alone, LPS (20 ng/mL), P3C (300 ng/mL), or OxPAPC (20 μg/mL) and RNA expression was measured. Commercially obtained OxPAPC activated IL-6 gene expression in WT and TLR2^−/− mouse peritoneal macrophages, but not in cells from TLR4^−/− mice (FIG. 9). […] Data are means+/−s.e.m. from 1 experiment with samples done in triplicate (*p<0.001, #p<0.05).

PR8 [4] = test: Lung viral titers in PR8-infected mice; format: in vivo; conditions: ~7500 TCID50 PR8, 200 μg/mouse i.v. starting on day 2
PR8 [5] = test: Survival of PR8-infected IFNβ−/− mice; format: in vivo; conditions: ~7500 TCID50 PR8; treated 2 days post-infection for 5 successive days
From the text: Wild-type and IFNβ^−/− mice were infected with ˜7500 TCID50 PR8 and were left either untreated (circles) or treated with eritoran 2 days post-infection, for 5 successive days (squares). (FIG. 11). Data represent the combined results of 2 separate experiments (6 mice per treatment per experiment; WT: untreated vs. eritoran treatment (p<0.0013); IFNβ^−/−: untreated v. eritoran treatment (p=ns).

PR8 [6] = test: Influenza-induced serum liver enzyme levels (ALT, AST) in PR8-infected mice; format: in vivo, C57BL/6J WT mice; conditions: 200 μg/mouse i.v. starting on day 2; serum day 7
Procedure: Mice infected i.n. with 50 μl of PR8 (˜7500 TCID50/mouse). Mice injected i.v. with 100 μl of eritoran (200 μg/mouse) starting on day 2 post-infection. Serum was collected on day 7 from C57BL/6J WT mice that were either mock-infected with saline or infected with PR8 and were either left untreated or were treated with eritoran starting on day 2 post-infection. Alanine aminotransaminase (ALT) and aspartate aminotransaminase (AST) were measured (Siemens Healthcare Diagnostics, Ltd.). […] Data represent 2 separate experiments with 4 mice per treatment per experiment.

influenza = test: Survival of influenza-infected TLR2−/− and CD14−/− mice; format: in vivo; conditions: treated 2 days post-infection for 5 successive days
From the text: Normal mice (WT), TLR4^−/−, TLR2^−/−, and CD14^−/− were infected with influenza and then were untreated (closed circles) or treated with eritoran (open circles) 2 days post-infection, for 5 successive days. (FIG. 13a). […] WT data were combined from 5 separate experiments (5-6 mice per treatment per experiment), TLR4^−/− data were combined from 3 separate experiments (5-6 mice per treatment per experiment), CD14^−/− data were combined from 2 separate experiments (4-5 mice per treatment per experiment). WT: untreated vs eritoran (p, 0.0001); TLR4^−/−: untreated vs. eritoran (p=ns); CD14^−/−: untreated vs. eritoran (p=ns); TLR2^−/−: untreated vs. eritoran (p=ns).

PR8 [7] = test: Influenza-induced cytokine and interferon mRNA in lungs of PR8-infected mice (real-time PCR); format: in vivo; conditions: 200 μg/mouse i.v. starting on day 2

## CCCCCC/C=C\CCCCCCCCCC(=O)N[C@H]1[C@H](OC[C@H]2O[C@H](OP(=O)(O)O)[C@H](NC(=O)CC(=O)CCCCCCCCCCC)[C@@H](OCCCCCCCCCC)[C@@H]2O)O[C@H](COC)[C@@H](OP(=O)(O)O)[C@@H]1OCC[C@@H](CCCCCCC)OC [eritoran, α-D-Glucopyranose, 3-O-decyl-2-deoxy-6-O-[2-deoxy-3-O-[(3R)-3-methoxydecyl)-6-O-methyl-2-[[(-11Z)-1-oxo-11-octadecenyl)amino]-4-O-phosphono-β-D-glucopyranosyl]-2-[(1,3-dioxotetradecyl)amino]-1-(dihydrogen phosphate)]
PR8 [1]
  lung sections nearly normal: ~80 % of lung sections
  lung sections showing inflammatory infiltrates: ~20 % of lung sections
PR8 [2]
  oxidation products of phospholipids in lung: detected in greater abundance and intensity in PR8-infected versus mice that were treated with eritoran
[3]; Experiment 1, 10 ng/mL applied 1 hour prior to virus
  Titer: 1.0 × 10^6 TCID50/ml
[3]; Experiment 1, 10 ng/mL applied at the same time as virus
  Titer: 3.1 × 10^6 TCID50/ml
[3]; Experiment 2, 10 ng/mL applied 1 hour prior to virus
  Titer: 3.4 × 10^5 TCID50/ml
[3]; Experiment 2, 10 ng/mL applied at the same time as virus
  Titer: 6.3 × 10^6 TCID50/ml
TLR4
  TLR4-dependent cell activation by OxPAPC (IL-6 gene expression): substantially inhibited
PR8 [4]; day 7 post-infection
  lung viral titers on day 7: further decreased
PR8 [4]; lungs harvested days 2, 4, 6
  lung viral titers: statistically significant decrease in lung viral titers
PR8 [5]
  protection (survival) in IFNβ−/− mice: does not induce protection
PR8 [6]
  liver enzyme levels (ALT, AST) in serum: lower levels of liver enzymes post-infection
influenza
  protection (survival) in TLR2−/− or CD14−/− mice: ineffective at inducing protection
PR8 [7]; days 2, 4, 6 post-infection
  cytokine gene expression in lung: significantly reduced cytokine gene expression at each time point
PR8 [7]; depends on interferon species
  interferon production (mRNA) in lung: variable levels of interferon production compared to control mice
